Test results from PubChem BioAssay AID294 (DTP/NCI, 2004).
Where “and” joins values, the source holds several entries; their conditions need not be identical. Equal values may be shown once.

Tested on: MX-1 breast xenograft, nude mice, tumor weight change
Experiment: NCI In Vivo Anticancer Drug Screen. Data for tumor model Human Mammary Carcinoma MX-1 Xenograft (subcutaneous) in NU/NU Swiss (nude) mice
Details: endpoint: optimum tumor weight change, schedule: Q04DX003 (ip), higher = larger tumour
Method: The antitumor activity of compounds was measured in mice bearing transplantable tumors. Survival or tumor size were measured and the results are expressed as the measurement made in the treated group (T) divided by the measurement made in the vehicle treated control group (C). The tumor model used in this assay is Human Mammary Carcinoma MX-1 Xenograft (subcutaneous) in NU/NU Swiss (nude) mice

[1] = dose: 400.0 mg/kg/injection, vehicle: saline with Tween-80
[2] = dose: 800.0 mg/kg/injection, vehicle: saline with Tween-80
[3] = dose: 12.5 mg/kg/injection, vehicle: saline with Tween-80
[4] = dose: 3.13 mg/kg/injection, vehicle: saline
[5] = dose: 50.0 mg/kg/injection, vehicle: Klucel (hydroxypropylcellulose) (HPC)

With `OCC1OC(n2cnc3c2NC=NC[C@H]3O)CC1O` (stereo partly drawn) the T/C (dose: 4.0 mg/kg/injection, vehicle: water) was 77 % of control, the T/C (dose: 8.0 mg/kg/injection, vehicle: water) was 78 % of control and the T/C (dose: 16.0 mg/kg/injection, vehicle: water) was 49 % of control.
For `NC(=S)N/N=C/c1ccc(O)cn1`, the T/C (dose: 100.0 mg/kg/injection, vehicle: saline with Tween-80) was 81 % of control, the T/C (dose: 200.0 mg/kg/injection, vehicle: saline with Tween-80) was 46 % of control and the T/C [1] was 39 % of control. For the same molecule, the T/C [2] was 73 % of control.
With `Oc1ccc(O)cc1` the T/C (dose: 100.0 mg/kg/injection, vehicle: saline) was 110 % of control.
With `CN1CCN(CCCN2c3ccccc3Sc3ccc(C(F)(F)F)cc32)CC1` the T/C (dose: 50.0 mg/kg/injection, vehicle: saline) was 58 % of control.
`N=C(N)SCc1c2ccccc2c(CSC(=N)N)c2ccccc12` was tested, and the T/C (dose: 25.0 mg/kg/injection, vehicle: suspension in saline) was 83 % of control and the T/C (dose: 50.0 mg/kg/injection, vehicle: suspension in saline) was 123 % of control.
`NC(=O)c1ccc[n+](Cc2c(Cl)cccc2Cl)c1` was tested, and the T/C (dose: 3.0 mg/kg/injection, vehicle: saline) was 169 % of control, the T/C (dose: 24.0 mg/kg/injection, vehicle: saline) was 111 % of control and 112 % of control and the T/C (dose: 96.0 mg/kg/injection, vehicle: saline) was 100 % of control.
For `O=c1[nH]cnc2n[nH]nc12`, the T/C (dose: 400.0 mg/kg/injection, vehicle: Klucel (hydroxypropylcellulose) (HPC)) was 99 % of control.
In the case of `O=C/C(Cl)=C(/Cl)C(=O)O`, the T/C [3] is reported as 96 % of control.
`Nc1ccc(Cl)cc1N` was tested, and the T/C [1] was 109 % of control, the T/C [2] was 110 % of control and the T/C (dose: 1600.0 mg/kg/injection, vehicle: saline with Tween-80) was 117 % of control. The T/C (dose: 3200.0 mg/kg/injection, vehicle: saline with Tween-80) was 80 % of control.
For `C=C(C)[C@H]1Cc2c(ccc3c2O[C@@H]2COc4cc(OC)c(OC)cc4[C@@H]2C3=O)O1`, the T/C [4] was 66 % of control, the T/C (dose: 12.5 mg/kg/injection, vehicle: saline) was 86 % of control and the T/C (dose: 25.0 mg/kg/injection, vehicle: saline) was 76 % of control.
With `CN(C)N=Nc1ccccc1` the T/C [5] was 221 % of control.
With `CC1OC(OC2CC(O)(C(=O)CO)Cc3c(O)c4c(c(O)c32)C(=O)c2ccccc2C4=O)CC(N)C1O` (stereo not drawn) the T/C (dose: 0.25 mg/kg/injection, vehicle: water) was 104 % of control and the T/C (dose: 0.5 mg/kg/injection, vehicle: water) was 104 % of control.
With `CO[C@H]1C[C@](C)(O)Cc2cc3c(c(O)c21)C(=O)c1c(O)cc2c(c1C3=O)O[C@@H]1O[C@@]2(C)[C@H](O)[C@@H](N(C)C)[C@@H]1O` the T/C (dose: 6.25 mg/kg/injection, vehicle: other) was 169 % of control and the T/C (dose: 12.5 mg/kg/injection, vehicle: other) was 165 % of control.
With `Cc1cc(N(CC(C)Br)CC(C)Br)ccc1N=Nc1ccccc1C(=O)O` (stereo not drawn) the T/C (dose: 3.13 mg/kg/injection, vehicle: saline with Tween-80) was 75 % of control, the T/C (dose: 6.25 mg/kg/injection, vehicle: saline with Tween-80) was 73 % of control and the T/C [3] was 61 % of control.
In the case of `COc1cc([C@@H]2c3cc4c(c(O)c3C[C@H]3COC(=O)[C@@H]32)OCO4)cc(OC)c1O`, the T/C [4] is reported as 92 % of control and the T/C (dose: 6.25 mg/kg/injection, vehicle: saline) is reported as 57 % of control.
In the case of `C=CC(=O)N1CN(C(=O)C=C)CN(C(=O)C=C)C1`, the T/C [3] is reported as 52 % of control.
For `COc1cccc2c1C(=O)c1c(O)c3c(c(O)c1C2=O)C[C@@](O)(C(C)=O)C[C@@H]3OC1CC(N)C(O)C(C)O1` (stereo partly drawn), the T/C (dose: 1.0 mg/kg/injection, vehicle: saline) was 72 % of control.
In the case of `Cc1cc(N(CCOS(C)(=O)=O)CCOS(C)(=O)=O)ccc1C=Nc1ccc(-c2nc(Cc3ccccc3)sc2C)cc1`, the T/C [5] is reported as 46 % of control, the T/C (dose: 100.0 mg/kg/injection, vehicle: Klucel (hydroxypropylcellulose) (HPC)) is reported as -84 % of control and the T/C (dose: 200.0 mg/kg/injection, vehicle: Klucel (hydroxypropylcellulose) (HPC)) is reported as -73 % of control.
